Key:
[1] = Photophysical properties: UV absorbance, fluorescence emission and quantum yield in different solvents; type: physicochemical; settings: for quantum yield (Φ): vs. quinine sulfate standard
Method: Quantum yields (Φ) were measured by comparison with a standard, which emits in a similar region to the test sample. From the available standard compounds quinine sulfate in 0.1 M H2SO4 (Φ=0.54) was selected.
UV absorbance at the excitation wavelength (375 nm), and fluorescence emission spectra of a series of solutions of the standard and compound were recorded. Solutions were prepared with different absorbances, ranging from 0 (solvent blank) to 0.1. A series of graphs of integrated fluorescence vs. absorbance were obtained. The data were fitted to a linear equation with gradient (grad), and intercept=0. See FIG. 5 as an example of the plots obtained.
The gradients of graphs in FIG. 5 are proportional to the quantum yield of the different samples. Absolute values were calculated using the standard sample, which has a fixed and known fluorescence quantum yield value, according to the following equation: […]
Where the subscripts std and x denote standard and test respectively. The value Φ is the fluorescence quantum yield, grad is the gradient (grad) from the plot of integrated fluorescence intensity vs. absorbance, and η the refractive index of the solvent.
The UV absorbance spectra (40 μM in methanol) and fluorescence emission spectra of compound (VIII), 6DMN-GlyOMe are shown in FIG. 6 and tabulated in Table 4. The UV spectrum of 6DMN-GlyOMe has an intense absorption band at 378 nm which is not found in unsubstituted 2,3-naphthalimides. The maximum excitation wavelength of 6DMN-GlyOMe is at 375 nm.
Quantum yields (Φ) were measured in the solvents listed in Table 2 by comparison with a standard, which emits in a similar region to 6DMN-GlyOMe. Quinine sulfate in 0.1 M H2SO4 (Φ=0.54) was used as the standard. (Melhuish, W. B. J. Phys. Chem., 1961, 65, 229-235). Solutions were prepared at different concentrations such that the absorbance measurements ranged between 0 and 0.1 at and above the excitation wavelength to avoid non-linear effects.
UV absorbance at the excitation wavelength (375 nm), and fluorescence emission spectra of a series of solutions of the standard and 6DMN-GlyOMe were recorded. A series of graphs of integrated fluorescence vs. absorbance were obtained. The data were fitted to a linear equation with gradient (grad), and intercept=0. The gradient (grad) is proportional to the quantum yield of the sample. Absolute values were calculated using the standard sample, which has a fixed and known fluorescence quantum yield value, according to the equation above.

[2] = Lippert-Mataga plot: Stokes shift vs. orientation polarizability; type: physicochemical; settings: from Stokes shift in 1,4-dioxane/acetonitrile mixtures
From the text: This can be estimated from a Lippert-Mataga plot, which is essentially a plot of the Stokes shift of the fluorescence emission versus the solvent polarity. (Lippert, V. E. Z. Elektrochem. 1957, 61, 962-975; Mataga, N.; Kaifu, Y.; Koizumi, M. Bull. Chem. Soc. Jpn. 1956, 29, 465-470.)
The difference (Δ v) in the maximum absorption ( vA) and emission wavelengths ( vF), known as the Stokes shift and expressed in wavenumbers, is plotted vs. Δf. The term Δf is called the orientation polarizability and can be calculated according to the following equation:
[formula] where ε is the solvent dielectric constant and n is the solvent refraction index.
The term Δf can also be calculated for a mixture of solvents. […] In this case, Δf is obtained for each mixture using ε and n values calculated using the molar fractions (χ) in the equation as follow: ε=(χacetonitrile)(38.8)+(χdiox)(2.218) (3) n=(χacetonitrile)(1.3442)+(χdiox)(1.4224) (4) where χacetonitrile+χdiox=1.
The relationship between Δ v and Δf is expressed by the following equation:
[formula] where c is the velocity of light, h is Plank's constant, μe−μg is the difference between the dipole moments of the excited and the ground states respectively (Δμ), and α0 is the radius of the Onsager cavity around the compound.

COC(=O)CN1C(=O)c2cc3ccc(N(C)C)cc3cc2C1=O [Peptide 6DMN-GlyOMe]
maximum excitation wavelength [1]: 375 nm | intense absorption band of the UV spectrum ([1]; 40 μM in methanol): 378 nm | absorbance maximum ([1]; 1,4-dioxane): 372 nm | emission maximum ([1]; 1,4-dioxane): 498 nm | quantum yield (Φ) ([1]; 1,4-dioxane): 0.220 | absorbance maximum ([1]; 2-propanol): 385 nm | emission maximum ([1]; 2-propanol): 589 nm | quantum yield (Φ) ([1]; 2-propanol): 0.018 | absorbance maximum ([1]; DMF): 380 nm | emission maximum ([1]; DMF): 545 nm | quantum yield (Φ) ([1]; DMF): 0.155 | absorbance maximum ([1]; acetone): 375 nm | emission maximum ([1]; acetone): 532 nm | quantum yield (Φ) ([1]; acetone): 0.148 | absorbance maximum ([1]; acetonitrile): 380 nm | emission maximum ([1]; acetonitrile): 549 nm | quantum yield (Φ) ([1]; acetonitrile): 0.135 | absorbance maximum ([1]; chloroform): 380 nm | emission maximum ([1]; chloroform): 509 nm | quantum yield (Φ) ([1]; chloroform): 0.225 | absorbance maximum ([1]; dichloromethane): 379 nm | emission maximum ([1]; dichloromethane): 517 nm | quantum yield (Φ) ([1]; dichloromethane): 0.210 | absorbance maximum ([1]; ethanol): 379 nm | emission maximum ([1]; ethanol): 584 nm | quantum yield (Φ) ([1]; ethanol): 0.027 | absorbance maximum ([1]; methanol): 382 nm | emission maximum ([1]; methanol): 589 nm | quantum yield (Φ) ([1]; methanol): 0.012 | absorbance maximum ([1]; tetrahydrofuran): 373 nm | emission maximum ([1]; tetrahydrofuran): 510 nm | quantum yield (Φ) ([1]; tetrahydrofuran): 0.147 | absorbance maximum ([1]; toluene): 373 nm | emission maximum ([1]; toluene): 491 nm | quantum yield (Φ) ([1]; toluene): 0.208 | absorbance maximum ([1]; water): 388 nm | emission maximum ([1]; water): 592 nm | increase in the dipole moment between ground and excited state [2]: 5.5 D

Source: patent US7442529B2, “Fluorescent probes for biological studies” (Massachusetts Institute of Technology, priority 2005, dated 2008)
